The values below come from patent publication US7875621B2, “Substituted 2-alkyl quinazolinone derivatives as PARP inhibitors” (Janssen Pharmaceutica NV, priority 2004, dated 2011).

The target of one assay is T1, TANK-2 enzyme (Homo sapiens, UniProt Q9H2K2).
T1 construct: inferred from capture on Ni-coated flash plate; made in house
T1 sequence (Q9H2K2 1-1166): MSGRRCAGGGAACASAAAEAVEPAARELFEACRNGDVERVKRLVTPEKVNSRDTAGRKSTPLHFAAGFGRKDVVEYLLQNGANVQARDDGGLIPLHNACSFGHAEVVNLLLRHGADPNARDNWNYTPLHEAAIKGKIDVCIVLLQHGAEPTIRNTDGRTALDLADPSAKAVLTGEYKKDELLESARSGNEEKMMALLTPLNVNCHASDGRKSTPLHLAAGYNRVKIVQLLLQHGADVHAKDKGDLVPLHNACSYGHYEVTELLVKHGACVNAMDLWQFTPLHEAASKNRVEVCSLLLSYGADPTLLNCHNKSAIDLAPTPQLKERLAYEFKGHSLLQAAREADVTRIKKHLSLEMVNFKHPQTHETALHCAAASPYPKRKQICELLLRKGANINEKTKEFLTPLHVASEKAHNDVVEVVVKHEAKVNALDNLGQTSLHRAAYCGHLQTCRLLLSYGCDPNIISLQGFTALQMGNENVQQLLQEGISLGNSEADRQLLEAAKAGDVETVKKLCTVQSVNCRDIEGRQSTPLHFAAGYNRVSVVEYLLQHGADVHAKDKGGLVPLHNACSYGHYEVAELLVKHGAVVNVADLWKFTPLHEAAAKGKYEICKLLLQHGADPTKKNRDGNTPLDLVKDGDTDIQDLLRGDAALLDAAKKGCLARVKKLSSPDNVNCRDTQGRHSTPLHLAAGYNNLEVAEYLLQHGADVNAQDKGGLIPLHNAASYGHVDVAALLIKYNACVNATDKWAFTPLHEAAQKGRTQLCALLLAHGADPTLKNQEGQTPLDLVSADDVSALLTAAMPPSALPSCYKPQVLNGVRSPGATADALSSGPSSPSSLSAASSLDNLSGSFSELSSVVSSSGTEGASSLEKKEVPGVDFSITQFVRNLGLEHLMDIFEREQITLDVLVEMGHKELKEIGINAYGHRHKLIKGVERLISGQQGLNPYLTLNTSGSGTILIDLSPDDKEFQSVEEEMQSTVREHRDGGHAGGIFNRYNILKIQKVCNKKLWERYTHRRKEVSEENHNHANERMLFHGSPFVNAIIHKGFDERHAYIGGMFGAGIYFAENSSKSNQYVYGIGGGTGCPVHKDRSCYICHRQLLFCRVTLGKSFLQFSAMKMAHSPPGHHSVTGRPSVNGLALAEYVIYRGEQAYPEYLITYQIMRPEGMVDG
Put plainly: In vitro scintillation proximity assay (SPA) for TANK-2 inhibitory activity. It counts as biochemical.
Conditions: not given
The procedure: In Vitro Scintillation Proximity Assay (SPA) for TANK-2 Inhibitory Activity
Compounds of the present invention were tested in an in vitro assay based on SPA technology with Ni Flash plates (96 or 384 well).
In principle, the assay relies upon SPA technology for the detection of auto-poly(ADP-ribosyl)ation of TANK-2 protein using [^3H]-nicotinamide adenine dinucleotide ([^3H]-NAD^+) as ADP-ribosyl donor.
A stock solution of [^3H]-NAD^+/NAD was made by adding 64.6 μl of [^3H]-NAD^+ (0.1 mCi/ml, supplier: Perkin Elmer) and 46.7 μl NAD-stock (10.7 mM, stored at −20° C., supplier Roche) to 1888.7 μl assay buffer (60 mM Tris/HCl, pH 7.4; 0.9 mM DTT; 6 mM MgCl2). The TANK-2 enzyme was produced as described in EP1238063. 60 μl of assay buffer, together with 1 μl of compound in DMSO, 20 μl of [^3H]-NAD^+/NAD and 20 μl of TANK-2 enzyme (final concentration 6 μg/ml) was added per well into a 96-well Ni-coated flash plate (Perkin Elmer). After incubation of the mixture for 120 min. at room temperature, the reaction was terminated by adding 60 μl of stopsolution (42.6 mg NAD in 6 ml H2O). The plates were covered with a plate sealer and placed in a TopCountNXT™ (Packard) for scintillation counting. Values were expressed as counts per minute (cpm). For each experiment, controls (containing TANK-2 enzyme and DMSO without compound), a blank incubation (containing DMSO but no TANK-2 enzyme or compound) and samples (containing TANK-2 enzyme and compound dissolved in DMSO) were run in parallel. All compounds tested were dissolved and eventually further diluted in DMSO. In first instance, compounds were tested at a concentration of 10^−5M. […] In each test, the blank value was subtracted from both the control and the sample values. The control sample represented maximal TANK-2 enzyme activity. For each sample, the amount of cpm was expressed as a percentage of the mean cpm value of the controls. When appropriate, IC50-values (concentration of the drug, needed to reduce the TANK-2 enzyme activity to 50% of the control) were computed using linear interpolation between the experimental points just above and below the 50% level. Herein the effects of test compounds are expressed as pIC50 (the negative log value of the IC50-value). As reference compounds, 3-aminobenzamide and 4-amino-1,8-naphtalimide were included to validate the SPA assay. Herein the assay was described using 96-well plates. In the assay using 384-well plates the same final concentrations were used and volumes were adapted.
A general note: In a scintillation proximity assay essentially only radioactivity close to the scintillant gives light.
As for `O=C1NC(CCN2CCC(n3c(=O)[nH]c4ccccc43)CC2)Nc2ccccc21` (stereo not drawn) [Compound 13], the IC50 is 0.938 µM.

The same assay, now with this note: auto-poly(ADP-ribosyl)ation, [3H]-NAD+, 96- or 384-well Ni Flash plates; read-out: in vitro SPA TANK-2 pIC50 (converted).
For the compound `O=C1NCN(c2ccccc2)C12CCN(CCCc1nc3ccccc3c(=O)[nH]1)CC2` [Compound 2], the IC50 is above 10 µM.
On the same count and under the same terms, next, `O=C(CC1CCN(CCc2nc3ccccc3c(=O)[nH]2)CC1)c1ccc(F)cc1` [Compound 3]: 2.48 µM.
The same measure, in the same setting: as for `NC(=O)C1(c2ccccc2)CCN(CCCc2nc3ccccc3c(=O)[nH]2)CC1` [Compound 4], the figure is above 10 µM; as for `NC(=O)C1(c2ccccc2)CCN(CCCC2NC(=O)c3ccccc3N2)CC1` (stereo not drawn) [Compound 5], above 10 µM.
The same measure, in the same setting: as for `O=C1NC(CCN2CCC3(CC2)C(=O)NCN3c2ccccc2)Nc2ccccc21` (stereo not drawn) [Compound 6], the figure is 7.43 µM; as for `O=C1NC(CCCN2CCC(n3c(=O)[nH]c4ccccc43)CC2)Nc2ccccc21` (stereo not drawn) [Compound 7], below 10 µM; as for `O=C(NC1CCN(CCCC2NC(=O)c3ccccc3N2)CC1)c1ccccc1` (stereo not drawn) [Compound 8], above 10 µM.
For the compound `O=C(c1ccc(F)cc1)C1CCN(CCc2nc3ccccc3c(=O)[nH]2)CC1` [Compound 9], the IC50 is above 10 µM.
As for `NC(=O)C1(N2CCOCC2)CCN(CCCc2nc3ccccc3c(=O)[nH]2)CC1` [Compound 11], the IC50 was above 10 µM.
Same read-out and setting: as for `O=C(NC1CCN(CCCc2nc3ccccc3c(=O)[nH]2)CC1)c1ccccc1` [Compound 12], the figure is above 10 µM.
Still for that read-out and setting: next, `O=C(c1ccc(F)cc1)C1CCN(CCCc2nc3ccccc3c(=O)[nH]2)CC1` [Compound 14]: above 10 µM.
